The results in this text go back to patent publication US7622480B2, “Azaindolylpiperidine derivatives as antihistaminic and antiallergic agents” (Laboratorios Almirall S.A., priority 2002, dated 2009).

SMILES strings stand for the structures.

In data set [1] the target is T1, histamine H1 receptor (Cavia porcellus, UniProt P31389).
T1 construct: performed in guinea pig cerebellum membranes as described previously; from tissue; host or cells: guinea pig cerebellum membranes
As to the kind of experiment: Histamine-H1 receptor binding assay. Conditions: guinea pig cerebellum membranes, 0.7 nM [3H]-mepyramine, 30 min at 30° C. The method, then:
(1) In vitro histamine H1 receptor binding assay, to measure the affinity of the compounds. […] Briefly, the membrane suspensions (160 μg/ml) were incubated at 30° C. with 0.7 nM [^3H]-mepyramine and different concentrations of the test compounds in a final volume of 250 μl. Binding reactions were terminated by filtration after 30 min of incubation and the bound radioactivity was determined. The non-specific binding was measured in the presence of 10 μM of promethazine. The affinity of each test compound to the receptor was determined by using at least six different concentrations run in duplicate. IC50 values were obtained by non-linear regression by use of SAS on a DEC AXP computer.

The test system of data set [2] is Histamine-induced skin vascular permeability in rats. As to the kind of experiment: Histamine-induced skin vascular permeability in rats. Type of data set: in vivo. Conditions: Rattus norvegicus, 4 h; Male Wistar rats, oral, dose of 3 mg/Kg, four hours after administration, compared with vehicle treated group. The method, then:
Either one, four, eight or 24 hours later the rats were lightly anaesthetized with ether and a cutaneous reaction was induced by two intradermal injections of 50 μl of histamine (100 μg/ml) onto the back, followed by a intravenous injection of 3 ml/kg of Evan's Blue (5 mg/ml), both dissolved in saline. Sixty minutes later, the rats were killed by cervical dislocation and the back skin dissected free. The diameter (in millimetres) of the papule was measured in two directions and the area was calculated.

T1 sequence (P31389 whole entry): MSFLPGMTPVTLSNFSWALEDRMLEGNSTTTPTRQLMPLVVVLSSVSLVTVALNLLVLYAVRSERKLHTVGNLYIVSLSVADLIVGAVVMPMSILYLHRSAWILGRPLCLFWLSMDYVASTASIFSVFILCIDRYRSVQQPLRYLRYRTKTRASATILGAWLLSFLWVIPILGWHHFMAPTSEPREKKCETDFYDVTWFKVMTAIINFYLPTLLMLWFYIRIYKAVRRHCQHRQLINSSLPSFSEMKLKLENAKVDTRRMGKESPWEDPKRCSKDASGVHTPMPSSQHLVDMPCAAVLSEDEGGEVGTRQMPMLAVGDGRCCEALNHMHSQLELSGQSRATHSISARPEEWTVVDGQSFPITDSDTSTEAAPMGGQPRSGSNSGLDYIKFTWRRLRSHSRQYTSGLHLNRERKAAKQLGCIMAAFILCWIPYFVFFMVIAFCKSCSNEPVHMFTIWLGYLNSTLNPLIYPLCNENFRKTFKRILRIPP

`O=C(O)c1ccc(Cl)cc1OCCN1CCC(c2cn(Cc3ccoc3)c3ncccc23)CC1` [Example 44, 4-chloro-2-{2-[4-(1-furan-3-ylmethyl-1H-pyrrolo[2,3-b]pyridin-3-yl)-piperidin-1-yl]-ethoxy}-benzoic acid]: the melting point was 81.6 to 83.3 °C. In addition, in data set [1], the IC50 came to 70 nM. In data set [2], this compound had an inhibition in vivo at 3 mg/kg of over 50%.
In data set [1], `O=C(O)c1cccc(CN2CCC(c3cn(Cc4ccoc4)c4ncccc34)CC2)c1` [Example 2, 3-[4-(1-furan-3-ylmethyl-1H-pyrrolo[2,3-b]pyridin-3-yl)piperidin-1-ylmethyl]benzoic acid] showed an IC50 of 560 nM. In data set [2], this compound displayed an inhibition in vivo at 3 mg/kg of over 50%.
For `COc1ccc(CN2CCC(c3cn(Cc4ccco4)c4ncccc34)CC2)cc1C(=O)O` [Example 10, 5-[4-(1-furan-2-ylmethyl-1H-pyrrolo[2,3-b]pyridin-3-yl)piperidin-1-ylmethyl]-2methoxy-benzoic acid] the same measures were 335 nM and over 50%.
For `COCCn1cc(C2CCN(Cc3cccc(C(=O)O)c3)CC2)c2cccnc21` [Example 1, 3-{4-[1-(2-methoxyethyl)-1H-pyrrolo[2,3-b]pyridin-3-yl]piperidin-1-ylmethyl}benzoic acid] the same measures were 240 nM and over 50%.
For `CCOCCn1cc(C2CCN(Cc3ccc(OC)c(C(=O)O)c3)CC2)c2cccnc21` [Example 5], the IC50 in data set [1] was found to be 695 nM. Moreover, the inhibition in vivo at 3 mg/kg in data set [2] was over 50%.
For `O=C(O)c1ccccc1OCCN1CCC(c2cn(Cc3ccoc3)c3ncccc23)CC1` [Example 3, 2-{2-[4-(1-furan-3-ylmethyl-1H-pyrrolo[2,3-b]pyridin-3-yl)piperidine-1-yl]ethoxy}benzoic acid] the same measures were 225 nM and over 50%.
